According to ChEMBL document CHEMBL1201862, “PubChem BioAssay data set” (2004):
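Growth conditions: 96-well plates. Treatment: test compound, 48 hours, 5 concentrations. Analysis: linear interpolation between bracketing concentrations; unreached endpoints set to highest concentration. At the GI50, growth is halved.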 The source made the active and inactive calls. Rule as the data show it: active = GI50 up to about 1.1 µM and inactive = higher.

Tests used:
Experiment in all cases: NCI-60 cell line screen, 48 h
[1] = test system: DMS-273
[2] = test system: LXFL 529
[3] = test system: HOP-18
[4] = test system: M19-MEL
[5] = test system: SNB-78
[6] = test system: DMS-114
[7] = test system: XF498
[8] = test system: RXF 631
[9] = test system: Hs-578T

Measured: GI50

COc1cc(C=C2C(=O)NC(=O)NC2=O)cc(OC)c1OC
inactive: [1] > 100 µM | [2] > 100 µM | [3] > 100 µM | [4] > 100 µM | [5] > 100 µM | [6] > 100 µM | [7] > 100 µM

O=C1C(CN2CCOCC2)CCCC1CN1CCOCC1 (stereo not given)
inactive: [1] 8.11 µM | [2] 1.53 µM | [3] 1.81 µM | [8] 10.5 µM | [4] 7.11 µM | [5] 2.35 µM | [6] 5.61 µM | [9] 23 µM

CN(C)CCCN1CCc2c([nH]c3ccccc23)C1c1cccnc1 (stereo not given)
inactive: [1] > 100 µM | [2] > 100 µM | [8] > 100 µM | [4] > 100 µM | [5] > 100 µM | [6] > 100 µM | [7] > 100 µM

NC(=S)N1N=C2c3ccccc3CC[C@@H]2[C@@H]1c1ccccc1
inactive: [1] 2.19 µM | [2] 8.18 µM | [3] 20.8 µM | [8] 7.85 µM | [4] 4.97 µM | [5] 28.1 µM | [6] 2.45 µM

CCCCN(CCCC)C(=Nc1ccccc1)N(CCCC)CCCC
inactive: [1] 4.61 µM | [2] 5.36 µM | [3] 1.76 µM | [8] 10.5 µM | [4] 8.39 µM | [5] 11.1 µM | [6] 1.59 µM | [7] 2.05 µM

CC(C)OCN/C(N)=N\C#N
inactive: [1] 49.2 µM | [2] > 100 µM | [3] > 100 µM | [8] > 100 µM | [4] > 100 µM | [5] > 100 µM | [6] > 100 µM | [7] > 100 µM

O=C(c1ccccc1)C1S(=O)(=O)OCCOS1(=O)=O
inactive: [1] > 100 µM | [2] > 100 µM | [8] > 100 µM | [4] > 100 µM | [5] > 100 µM | [6] > 100 µM | [7] > 100 µM

CC(=O)OCCOCBr
inactive: [1] > 100 µM | [2] > 100 µM | [3] > 100 µM | [8] > 100 µM | [4] > 100 µM | [6] > 100 µM | [7] > 100 µM

O=C1C2c3[nH]c4ccccc4c3C3CCCCCCC3C2C(=O)N1c1ccccc1 (stereo not given)
inactive: [1] 11.1 µM | [2] 12.9 µM | [8] 4.71 µM | [4] 10.9 µM | [5] 13.2 µM | [6] 4.71 µM | [7] 1.92 µM

Cc1ccc(/C=N/NS(=O)(=O)c2ccccc2)cc1C
inactive: [1] > 100 µM | [2] 36.5 µM | [3] > 100 µM | [4] > 100 µM | [5] > 100 µM | [6] 46.1 µM | [7] 87.3 µM

CC(=O)OCCC(O[Si](c1ccccc1)(c1ccccc1)C(C)(C)C)C(C)(C)O (stereo not given)
inactive: [1] 27 µM | [2] 42.7 µM | [3] 25.2 µM | [8] 34.3 µM | [4] 23.1 µM | [5] 59.4 µM | [6] 19.9 µM | [7] 29.4 µM

COC(=O)/C=C/c1c(CC=C(C)C)ncn1C
inactive: [1] 8.38 µM | [2] 55.1 µM | [3] > 100 µM | [8] 59 µM | [4] 18.8 µM | [5] 53.2 µM | [6] 5.38 µM | [7] 41.3 µM

O=C(CC1(O)C(=O)Nc2ccccc21)c1ccc(Cl)cc1Cl (stereo not given)
inactive: [1] > 100 µM | [2] > 100 µM | [8] > 100 µM | [4] > 100 µM | [5] > 100 µM | [6] > 100 µM | [7] > 100 µM

N#CC(C(=O)CCC(=O)Nc1ccc(Cl)c(Cl)c1)c1ccc(Cl)cc1 (stereo not given)
inactive: [1] 39.3 µM | [2] 21.3 µM | [3] > 100 µM | [8] 90.6 µM | [4] 82.2 µM | [5] > 100 µM | [6] 75.3 µM

C=C(CN(C)C)C(=O)c1ccccc1Cl
inactive: [1] 19.6 µM | [2] 12.5 µM | [3] 19.5 µM | [8] 21.2 µM | [4] 18.3 µM | [5] 30.4 µM | [6] 15.9 µM

O=C(Nc1ccccc1-c1nn(C(=S)Nc2ccccc2)c(=S)n(C(=S)Nc2ccccc2)c1=O)C(F)(F)F
inactive: [1] 27.4 µM | [2] 17.1 µM | [3] 30.1 µM | [4] 28.2 µM | [5] 35.4 µM | [6] 9.38 µM | [7] 23.1 µM

O=C1C2CCC(C2)C12CC1(c3ccccc3)C(=O)c3ccccc3N1O2 (stereo not given)
inactive: [1] 81.8 µM | [2] > 100 µM | [3] > 100 µM | [4] > 100 µM | [5] > 100 µM | [6] > 100 µM | [7] > 100 µM

O=c1[nH]c(=O)n(C2OC(CO)C(O)C2O)cc1OCC(F)(F)F (stereo not given)
inactive: [1] > 100 µM | [2] > 100 µM | [3] > 100 µM | [4] > 100 µM | [5] > 100 µM | [6] > 100 µM | [7] > 100 µM

CC(=O)OC1CC[C@@]2(C)C(CC[C@]3(C)C2CC=C2[C@@H]4C(C)[C@H](C)CCC4(C)CCC23C)[C@@]1(C)C(=O)O (stereo not given in full)
inactive: [1] 21.2 µM | [2] 17.3 µM | [3] 16.3 µM | [8] 23.9 µM | [4] 23.1 µM | [5] 26.5 µM | [6] 18.4 µM | [7] 16.9 µM | [9] 25.7 µM
